According to article PMC9032457, “Binding Interaction of Betulinic Acid to α-Glucosidase and Its Alleviation on Postprandial Hyperglycemia” (Molecules, 2022):
Where two headings read alike, the source gives them in different places.

Columns and labels:
[1] = target: T1, α-glucosidase (Saccharomyces cerevisiae, UniProt P53341); set-up: method as in PMID 29030193; conditions: literature; cited from earlier work
T1 construct: purchased Sigma-Aldrich

[2] = test system: postprandial blood glucose level; experiment: Oral disaccharide tolerance test (ODTT); format: in vivo, BALB/c mice; conditions: normal mice, oral BA 20 mg/kg or acarbose 7 mg/kg; for postprandial blood glucose levels vs control: after mixed maltose-sucrose, p < 0.01; for blood glucose level at 30 min: mixed maltose-sucrose 2 g/kg, control 12.58 ± 0.47
Description: (§1) The dynamic characteristics of postprandial blood glucose level were evaluated by ODTT and OGTT, which were performed as described previously. BALB/c mice (5 weeks old, male) were purchased from Guangdong Medical Laboratory Animal Center (Guangzhou, China). The animal study was approved by the Committee on the Ethics of Animal Experiments of the Institute of Microbiology, Guangdong Academy of Science (GT-IACUC202012102). After one week of acclimation, the mice were randomly divided into a control group, BA-treated group and acarbose-treated group (n = 8), respectively. […] After 30 min, all the mice were intragastrically administered with the mixed maltose-sucrose solution (2 g/kg). In total, 10 μL of blood was collected by tail cut and glucose levels at 0, 30, 60, 90 and 120 min was measured by glucometer (Roche ACCU-CHEK Performa Nano), respectively. Two days later, all the mice were give the oral glucose tolerance test (OGTT), which was performed as the ODTT modus. The oral dose of glucose was also 2 g/kg.

[3] = test system: postprandial blood glucose level; experiment: Oral glucose tolerance test (OGTT); format: in vivo, BALB/c mice; conditions: normal mice, oral BA 20 mg/kg or acarbose 7 mg/kg; glucose 2 g/kg
Description: as §1

[4] = target: T1, α-glucosidase; experiment: Combination of acarbose with BA on α-glucosidase activity; format: biochemical, yeast; set-up: key to Vab (observed residual activity) / Vc (expected residual activity): fraction of remaining α-glucosidase activity (0–1)
Description: The method was the same as the α-glucosidase activity assay. […] The value for BA (Vb) was also defined. If the inhibitory effects on α-glucosidase of the two compounds are independent, the final remnant activity fraction of α-glucosidase (Vc) is equal to VaVb when the reaction is sequentially treated by those two compounds. […] The types of interaction were determined by the relationship between Vab and Va, Vb, or Vc.

[5] = target: T1, α-glucosidase; set-up: method as in PMID 29902001, doi:10.1016/j.indcrop.2015.08.031, PMID 33876656; conditions: in vitro; read-out: IC50 against α-glucosidase, previous research; cited from earlier work
[6] = target: T1, α-glucosidase; experiment: Enzyme inhibition kinetics (Lineweaver-Burk plot); format: biochemical
Description: α-Glucosidase inhibition kinetics was studied as previously reported. BA was set with the concentrations of 0, 12 and 24 μM for 0.2 U/mL α-glucosidase. A series of concentrations of pNPG were used as substrates. The inhibition type was determined by using the Lineweaver–Burk plots and its secondary equations. The kinetic parameters (Vmax and Ki) were evaluated by the nonlinear regression of the Michaelis–Menton equation with GraphPad Prism 7.0. (https://www.graphpad.com/support/prism-7-updates/, accessed on 12 May 2021).

[7] = target: T1, α-glucosidase; experiment: SPR assay (Biacore T200); format: binding; conditions: 1:1 Langmuir model, enzyme immobilized on CM5 chip, read-out: equilibrium dissociation constant (KD)
Description: SPR analysis was applied on a Biacore T200 system (GE Healthcare, Uppsala, Sweden). α-Glucosidase solution (50 μg/mL) was prepared and stayed at room temperature for 30 min. Then, the activated α-glucosidase was immobilized on a CM5 sensor chip pre-activated by EDC/NHS with an amine coupling kit at a flow rate of 10 μL/min. BA solution of different concentrations containing 5% DMSO was serially injected over α-glucosidase coated surface. PBS was used as the mobile phase with a flow rate of 30 μL/min. According to the 1:1 Langmuir model, the equilibrium dissociation constant (KD) was calculated by the Biacore evaluation software. (https://www.cytivalifesciences.com/en/us/shop/protein-analysis/spr-label-free-analysis/software/biacore-insight-evaluation-software-p-23528, accessed on 26 October 2016).

[8] = target: T1, α-glucosidase; experiment: α-Glucosidase inhibition assay (pNPG substrate); format: biochemical
Description: α-Glucosidase inhibition was assayed according to the methods described previously. Briefly, 40 μL phosphate buffer (0.1 M, pH = 6.8), 10 μL BA solutions and 50 μL α-glucosidase solution (0.4 U/mL) were added into 96-well plates and mixed thoroughly. After being incubated at 37 °C for 10 min, 50 μL pNPG solution (2.5 mM) was added to initiate the reaction and stayed at 37 °C for 30 min. Then, 40 μL Na2CO3 solution (1.0 M) was added to terminate the reaction. A microplate reader was employed to read the absorbance at 405 nm. The inhibition rates (%) = [(ODcontrol − ODcontrol blank) − (OD test − ODtest blank)]/(ODcontrol − ODcontrol blank) × 100%.

T1 sequence (P53341 whole entry): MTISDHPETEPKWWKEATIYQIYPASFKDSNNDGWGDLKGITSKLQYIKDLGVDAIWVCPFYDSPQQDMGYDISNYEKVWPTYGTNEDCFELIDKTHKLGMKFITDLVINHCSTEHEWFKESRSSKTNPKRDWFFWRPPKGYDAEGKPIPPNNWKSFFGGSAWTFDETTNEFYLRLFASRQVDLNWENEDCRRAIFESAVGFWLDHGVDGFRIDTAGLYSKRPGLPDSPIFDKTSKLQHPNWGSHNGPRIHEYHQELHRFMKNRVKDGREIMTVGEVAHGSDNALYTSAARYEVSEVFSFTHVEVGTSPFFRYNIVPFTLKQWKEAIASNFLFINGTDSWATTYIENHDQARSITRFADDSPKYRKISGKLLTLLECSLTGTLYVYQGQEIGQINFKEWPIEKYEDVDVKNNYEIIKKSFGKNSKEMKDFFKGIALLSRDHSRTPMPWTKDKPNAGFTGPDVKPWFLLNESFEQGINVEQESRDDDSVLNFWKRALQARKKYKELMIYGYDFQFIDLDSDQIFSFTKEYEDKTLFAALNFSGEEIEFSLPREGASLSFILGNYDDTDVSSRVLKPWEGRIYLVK

CC1(C)CC[C@]2(C(=O)O)CC[C@]3(C)C(=CC[C@@H]4[C@@]5(C)CC[C@H](O)C(C)(C)[C@@H]5CC[C@]43C)[C@@H]2C1 [oleanolic acid]
inhibition type [1]: non-competitive

C[C@H]1[C@H](C)CC[C@]2(C(=O)O)CC[C@]3(C)C(=CC[C@@H]4[C@@]5(C)CC[C@H](O)C(C)(C)[C@@H]5CC[C@]43C)[C@H]12 [ursolic acid]
inhibition type [1]: non-competitive

C[C@H]1O[C@H](O[C@H]2[C@H](O)[C@@H](O)[C@@H](O[C@H]3[C@H](O)[C@@H](O)C(O)O[C@@H]3CO)O[C@@H]2CO)[C@H](O)[C@@H](O)[C@@H]1N[C@H]1C=C(CO)[C@@H](O)[C@H](O)[C@H]1O (stereo partly drawn) [acarbose, reference compound]
inhibition type [1]: competitive | postprandial blood glucose levels vs control [2]: significantly suppressed | blood glucose level at 30 min [2]: 10.76 ± 0.39 mM | effect on blood glucose level after oral glucose [3]: no significant effect

C=C(C)[C@@H]1CC[C@]2(C(=O)O)CC[C@]3(C)[C@H](CC[C@@H]4[C@@]5(C)CC[C@H](O)C(C)(C)[C@@H]5CC[C@]43C)[C@@H]12 [BA, betulinic acid]
postprandial blood glucose levels vs control [2]: significantly suppressed | blood glucose level at 30 min [2]: 10.46 ± 0.31 mM | Interaction ([4]; BA 5 μM + acarbose 600 μM): SY (Vab − Vc < −0.1 is considered as the synergistic (SY) interaction between BA and acarbose) | Vab (observed residual activity) ([4]; BA 5 μM + acarbose 600 μM): 0.47 | Vab − Vc ([4]; BA 5 μM + acarbose 600 μM): −0.12 | Vc (expected residual activity) ([4]; BA 5 μM + acarbose 600 μM): 0.59 | Interaction ([4]; BA 5 μM + acarbose 800 μM): SY (Vab − Vc < −0.1 is considered as the synergistic (SY) interaction between BA and acarbose) | Vab (observed residual activity) ([4]; BA 5 μM + acarbose 800 μM): 0.42 | Vab − Vc ([4]; BA 5 μM + acarbose 800 μM): −0.15 | Vc (expected residual activity) ([4]; BA 5 μM + acarbose 800 μM): 0.56 | Interaction ([4]; BA 5 μM + acarbose 1000 μM): SY (Vab − Vc < −0.1 is considered as the synergistic (SY) interaction between BA and acarbose) | Vab (observed residual activity) ([4]; BA 5 μM + acarbose 1000 μM): 0.41 | Vab − Vc ([4]; BA 5 μM + acarbose 1000 μM): −0.13 | Vc (expected residual activity) ([4]; BA 5 μM + acarbose 1000 μM): 0.53 | Interaction ([4]; BA 10 μM + acarbose 600 μM): SY (Vab − Vc < −0.1 is considered as the synergistic (SY) interaction between BA and acarbose) | Vab (observed residual activity) ([4]; BA 10 μM + acarbose 600 μM): 0.39 | Vab − Vc ([4]; BA 10 μM + acarbose 600 μM): −0.18 | Vc (expected residual activity) ([4]; BA 10 μM + acarbose 600 μM): 0.57 | Interaction ([4]; BA 10 μM + acarbose 800 μM): SY (Vab − Vc < −0.1 is considered as the synergistic (SY) interaction between BA and acarbose) | Vab (observed residual activity) ([4]; BA 10 μM + acarbose 800 μM): 0.36 | Vab − Vc ([4]; BA 10 μM + acarbose 800 μM): −0.18 | Vc (expected residual activity) ([4]; BA 10 μM + acarbose 800 μM): 0.54 | Interaction ([4]; BA 10 μM + acarbose 1000 μM): SY (Vab − Vc < −0.1 is considered as the synergistic (SY) interaction between BA and acarbose) | Vab (observed residual activity) ([4]; BA 10 μM + acarbose 1000 μM): 0.34 | Vab − Vc ([4]; BA 10 μM + acarbose 1000 μM): −0.17 | Vc (expected residual activity) ([4]; BA 10 μM + acarbose 1000 μM): 0.51 | Interaction ([4]; BA 15 μM + acarbose 600 μM): SY (Vab − Vc < −0.1 is considered as the synergistic (SY) interaction between BA and acarbose) | Vab (observed residual activity) ([4]; BA 15 μM + acarbose 600 μM): 0.32 | Vab − Vc ([4]; BA 15 μM + acarbose 600 μM): −0.18 | Vc (expected residual activity) ([4]; BA 15 μM + acarbose 600 μM): 0.50 | Interaction ([4]; BA 15 μM + acarbose 800 μM): SY (Vab − Vc < −0.1 is considered as the synergistic (SY) interaction between BA and acarbose) | Vab (observed residual activity) ([4]; BA 15 μM + acarbose 800 μM): 0.29 | Vab − Vc ([4]; BA 15 μM + acarbose 800 μM): −0.18 | Vc (expected residual activity) ([4]; BA 15 μM + acarbose 800 μM): 0.48 | Interaction ([4]; BA 15 μM + acarbose 1000 μM): SY (Vab − Vc < −0.1 is considered as the synergistic (SY) interaction between BA and acarbose) | Vab (observed residual activity) ([4]; BA 15 μM + acarbose 1000 μM): 0.28 | Vab − Vc ([4]; BA 15 μM + acarbose 1000 μM): −0.16 | Vc (expected residual activity) ([4]; BA 15 μM + acarbose 1000 μM): 0.45 | IC50 [5]: 10.6 to 83.6 µM | inhibition type ([6]; Lineweaver-Burk plot, BA 0, 12 and 24 μM, 0.2 U/mL enzyme): non-competitive | Ki ([6]; from secondary plot of slope vs. BA, read-out: inhibition kinetic constant (Ki)): 38.5 µM | effect on blood glucose level after oral glucose [3]: no significant effect | Kd [7]: 55.3 µM | fold stronger than acarbose (IC50) ([8]; BA IC50 vs acarbose IC50): approximately 50 fold | IC50 ([8]; pNPG 2.5 mM, pH 6.8, 37 °C, read-out: IC50 against α-glucosidase): 16.8 ± 1.16 µM
